Experimental data: ChEMBL document CHEMBL2434963, “Synthesis and cytotoxic activity of some novel steroidal C-17 pyrazolinyl derivatives” (Eur J Med Chem, 2013)
Converted amounts (≈) assume the structure as drawn.

Columns and labels:
HepG2 = assay: Cytotoxicity against human HepG2 cells after 48 hrs by MTT assay; assay type: functional, cell-based; conditions: HepG2, 48 h
NCI-H460 = assay: Cytotoxicity against human NCI-H460 cells after 48 hrs by MTT assay; assay type: functional, cell-based; conditions: NCI-H460, 48 h
Artemia salina = assay: Toxicity in Artemia salina larvae after 24 hrs by microscopic analysis; assay type: functional
HeLa [1] = assay: cells; conditions: Homo sapiens, 48 h
Description: Cytotoxicity against human HeLa cells after 48 hrs by MTT assay

HeLa [2] = assay: Cell cycle arrest in human HeLa cells assessed as accumulation at G2/M phase at 40 ug/ml after 24 hrs by propidium iodide staining-based flow cytometry (reference value: 11.7%); assay type: functional
HeLa [3] = assay: Cell cycle arrest in human HeLa cells assessed as accumulation at G2/M phase at 20 ug/ml after 24 hrs by propidium iodide staining-based flow cytometry (reference value: 11.7%); assay type: functional
HeLa [4] = assay: Cell cycle arrest in human HeLa cells assessed as accumulation at G2/M phase at 10 ug/ml after 24 hrs by propidium iodide staining-based flow cytometry (reference value: 11.7%); assay type: functional
HeLa [5] = assay: Cell cycle arrest in human HeLa cells assessed as accumulation at S phase at 40 ug/ml after 24 hrs by propidium iodide staining-based flow cytometry (reference value: 20.6%); assay type: functional
HeLa [6] = assay: Cell cycle arrest in human HeLa cells assessed as accumulation at S phase at 20 ug/ml after 24 hrs by propidium iodide staining-based flow cytometry (reference value: 20.6%); assay type: functional
HeLa [7] = assay: Cell cycle arrest in human HeLa cells assessed as accumulation at S phase at 10 ug/ml after 24 hrs by propidium iodide staining-based flow cytometry (reference value: 20.6%); assay type: functional
HeLa [8] = assay: Cell cycle arrest in human HeLa cells assessed as accumulation at G0/G1 phase at 40 ug/ml after 24 hrs by propidium iodide staining-based flow cytometry (reference value: 67.7%); assay type: functional
HeLa [9] = assay: Cell cycle arrest in human HeLa cells assessed as accumulation at G0/G1 phase at 20 ug/ml after 24 hrs by propidium iodide staining-based flow cytometry (reference value: 67.7%); assay type: functional
HeLa [10] = assay: Cell cycle arrest in human HeLa cells assessed as accumulation at G0/G1 phase at 10 ug/ml after 24 hrs by propidium iodide staining-based flow cytometry (reference value: 67.7%); assay type: functional

`CC(=O)N1N=C([C@H]2CC[C@H]3[C@@H]4CCC5=C(Cl)C(=O)C=C[C@]5(C)[C@H]4CC[C@]23C)CC1c1ccc([N+](=O)[O-])cc1` (some centres undefined) showed an IC50 (HepG2) greater than 50 µg/mL, an IC50 (NCI-H460) greater than 50 µg/mL and an LC50 (Artemia salina) of 8.43 µg/mL (≈ 15.7 µM). The IC50 (HeLa [1]) was greater than 50 µg/mL.

Work on `CC(=O)N1N=C([C@H]2CC[C@H]3[C@@H]4CCC5=CC(=O)C=C[C@]5(C)[C@H]4CC[C@]23C)CC1c1ccc(Cl)cc1` (some centres undefined) yielded an LC50 (Artemia salina) of 36.6 µg/mL (≈ 74.6 µM) and an IC50 (HeLa [1]) greater than 50 µg/mL.

For `COc1ccccc1C1CC([C@H]2CC[C@H]3[C@@H]4CCC5=CC(=O)C=C[C@]5(C)[C@H]4CC[C@]23C)=NN1C(C)=O` (some centres undefined), the LC50 (Artemia salina) was 44.9 µg/mL (≈ 92.2 µM) and the IC50 (HeLa [1]) was greater than 50 µg/mL.

With `CC(=O)N1N=C([C@H]2CC[C@H]3[C@@H]4CCC5=C(Cl)C(=O)C=C[C@]5(C)[C@H]4CC[C@]23C)CC1c1ccccc1[N+](=O)[O-]` (some centres undefined) the IC50 (HepG2) was greater than 50 µg/mL, the IC50 (NCI-H460) was 14.8 µg/mL (≈ 27.6 µM) and the LC50 (Artemia salina) was 7.7 µg/mL (≈ 14.4 µM). It also gave an IC50 (HeLa [1]) greater than 50 µg/mL.

Work on `CC(=O)N1N=C([C@H]2CC[C@H]3[C@@H]4CCC5=CC(=O)C=C[C@]5(C)[C@H]4CC[C@]23C)CC1c1ccccc1` (some centres undefined) yielded an LC50 (Artemia salina) of 18.9 µg/mL (≈ 41.5 µM) and an IC50 (HeLa [1]) greater than 50 µg/mL.

`O=c1[nH]cc(F)c(=O)[nH]1` [FLUOROURACIL] was tested, and the IC50 (NCI-H460) was 2.48 µg/mL (≈ 19.1 µM) and the IC50 (HeLa [1]) was 0.887 µg/mL (≈ 6.82 µM).

Work on `COc1ccc(C2CC([C@H]3CC[C@H]4[C@@H]5CCC6=CC(=O)C=C[C@]6(C)[C@H]5CC[C@]34C)=NN2C(C)=O)cc1` (some centres undefined) yielded an LC50 (Artemia salina) greater than 50 µg/mL and an IC50 (HeLa [1]) greater than 50 µg/mL.

Work on `CC(=O)N1N=C([C@H]2CC[C@H]3[C@@H]4CCC5=C(Cl)C(=O)C=C[C@]5(C)[C@H]4CC[C@]23C)CC1c1ccccc1` (some centres undefined) yielded an IC50 (HepG2) of 17.3 µg/mL (≈ 35.2 µM), an IC50 (NCI-H460) of 13.1 µg/mL (≈ 26.7 µM) and an LC50 (Artemia salina) of 4.99 µg/mL (≈ 10.2 µM). For the same molecule, the IC50 (HeLa [1]) was 13.7 µg/mL (≈ 27.9 µM).

For `CC(=O)[C@H]1CC[C@H]2[C@@H]3CCC4=C(Cl)C(=O)C=C[C@]4(C)[C@H]3CC[C@]12C`, the IC50 (HepG2) was greater than 50 µg/mL, the IC50 (NCI-H460) was 26.7 µg/mL (≈ 77 µM) and the LC50 (Artemia salina) was greater than 100 µg/mL. For the same molecule, the IC50 (HeLa [1]) was greater than 50 µg/mL.

Work on `COc1ccccc1C1CC([C@H]2CC[C@H]3[C@@H]4CCC5=C(Cl)C(=O)C=C[C@]5(C)[C@H]4CC[C@]23C)=NN1C(C)=O` (mixture of isomers) yielded an IC50 (HepG2) of 16.2 µg/mL, an IC50 (NCI-H460) of 15.7 µg/mL and an LC50 (Artemia salina) of 9.92 µg/mL. For the same molecule, the IC50 (HeLa [1]) was 15.3 µg/mL.

With `COc1ccc(C2CC([C@H]3CC[C@H]4[C@@H]5CCC6=C(Cl)C(=O)C=C[C@]6(C)[C@H]5CC[C@]34C)=NN2C(C)=O)cc1` (mixture of isomers) the IC50 (HepG2) was 16.9 µg/mL, the IC50 (NCI-H460) was 17.9 µg/mL and the LC50 (Artemia salina) was 27.3 µg/mL. It also gave an IC50 (HeLa [1]) of 19.7 µg/mL.

`CC(=O)[C@H]1CC[C@H]2[C@@H]3CCC4=CC(=O)CC[C@]4(C)[C@H]3CC[C@]12C` [PROGESTERONE] was tested, and the LC50 (Artemia salina) was greater than 100 µg/mL and the IC50 (HeLa [1]) was greater than 50 µg/mL.

`CC(=O)N1N=C([C@H]2CC[C@H]3[C@@H]4CCC5=C(Cl)C(=O)C=C[C@]5(C)[C@H]4CC[C@]23C)CC1c1ccc(Cl)cc1` (some centres undefined) gave an IC50 (HepG2) of 25.3 µg/mL (≈ 48.1 µM), an IC50 (NCI-H460) of 13.9 µg/mL (≈ 26.4 µM) and an LC50 (Artemia salina) of 10.4 µg/mL (≈ 19.8 µM). It also gave an IC50 (HeLa [1]) of 26.6 µg/mL (≈ 50.6 µM).

For `CC(=O)N1N=C([C@H]2CC[C@H]3[C@@H]4CCC5=C(Cl)C(=O)C=C[C@]5(C)[C@H]4CC[C@]23C)CC1c1ccccc1Cl` (mixture of isomers), the Activity (HeLa [2]) was 11.3%, the Activity (HeLa [3]) was 9.7% and the Activity (HeLa [4]) was 9.9%. The Activity (HeLa [5]) was 41.1%, the Activity (HeLa [6]) was 38.9% and the Activity (HeLa [7]) was 34.3%. It also gave an Activity (HeLa [8]) of 47.6%, an Activity (HeLa [9]) of 51.4% and an Activity (HeLa [10]) of 55.8%. The IC50 (HepG2) was 24.3 µg/mL, the IC50 (NCI-H460) was 10.3 µg/mL and the LC50 (Artemia salina) was 5.65 µg/mL. The IC50 (HeLa [1]) was 12.5 µg/mL.

Molecule `CC(=O)N1N=C([C@H]2CC[C@H]3[C@@H]4CCC5=CC(=O)C=C[C@]5(C)[C@H]4CC[C@]23C)CC1c1ccccc1[N+](=O)[O-]` (some centres undefined) has an LC50 (Artemia salina) of 30.2 µg/mL (≈ 60.2 µM) and an IC50 (HeLa [1]) greater than 50 µg/mL.

`CC(=O)N1N=C([C@H]2CC[C@H]3[C@@H]4CCC5=CC(=O)C=C[C@]5(C)[C@H]4CC[C@]23C)CC1c1ccc([N+](=O)[O-])cc1` (some centres undefined) gave an LC50 (Artemia salina) of 38.2 µg/mL (≈ 76.1 µM) and an IC50 (HeLa [1]) greater than 50 µg/mL.

`CC(=O)N1N=C([C@H]2CC[C@H]3[C@@H]4CCC5=CC(=O)C=C[C@]5(C)[C@H]4CC[C@]23C)CC1c1ccccc1Cl` (some centres undefined) gave an LC50 (Artemia salina) of 21.7 µg/mL (≈ 44.2 µM) and an IC50 (HeLa [1]) greater than 50 µg/mL.
